In patent publication EP4806904A1, “POLYPEPTIDE AND USE THEREOF” (Sichuan Gooddoctor Panxi Pharmaceutical Co. Ltd, priority 2023, dated 2026):
Where a SMILES comes first, the peptide text is derived from it. [ ]: non-standard residue; d: D form.

Assays:
[1] = test system: neural stem cell line C17.2; test: Proliferation of neural stem cell line C17.2, BrdU, high-content imaging; type: cell-based; settings: 100 µg/mL, 48 h; for Proliferation-promoting results: percentage of BrdU-positive cells, significance vs blank control group; for number of BrdU positive cells: vs blank control group, in words
Procedure: • (1) C17.2 cells were seeded in 96-well plates at a concentration of 1500 cells/100 µL/well. After overnight culture for cell adherence, the cells were treated with drugs; • (2) Drug treatment was applied. The final concentration of the polypeptide of the invention was 100 µg/mL. Meanwhile, butylphthalide (NBP, 5 µM) was set as the positive control. The cells were cultured in the incubator for another 48 h; • (3) BrdU was added at 44 h of treatment to a final concentration of 10 µM. Immunofluorescence staining was performed 4 h later, and the percentage of BrdU-positive cells was statistically analyzed using a high-content cell imaging analysis system.

[2] = test system: primary neural stem cells (NSCs); test: Differentiation of primary neural stem cells, βIII-tubulin fluorescence and Neurite Outgrowth Assay; type: cell-based, SD rats; settings: 100 µg/mL, 4 days; for neurite outgrowth (total neurite length, maximum neurite length, neurite terminals, neurite initiation points): Neurite Outgrowth Assay; for neurite outgrowth (total neurite length, maximum neurite length, neurite terminals, neurite initiation points) / mean fluorescence intensity of the neuronal marker protein βIII-tubulin: in words; for mean fluorescence intensity of the neuronal marker protein βIII-tubulin: vs blank control group; for Average fluorescence intensity: βIII-tubulin
Procedure: This part of the experiment requires feeding male and female rats in advance, then extracting hippocampal neural stem cells from newborn SD rats within 24 h of birth, culturing them to P3 for identification, and then using them for experiments. • (1) Extraction and culture of primary neural stem cells (NSCs) • (2) NSCs that have been passaged to P3 and have good viability were seeded in differentiation medium (2% FBS+DMEM/F12 1:1 medium) in 48-well plates with a cell concentration of 5×10^4 cells/mL per well. After overnight culture for cell adherence, the cells were treated with drugs; • (3) Drug treatment was applied. The final concentration of the polypeptide of the invention was 100 µg/mL. Meanwhile, nerve growth factor (NGF, 50 ng/mL) was set as the positive control, and the cells were cultured in the incubator for another 4 days; • (4) Immunofluorescence staining (primary antibody βIII-tubulin) was performed after 4 days of treatment. The average fluorescence intensity of βIII-tubulin was analyzed and the Neurite Outgrowth Assay was performed using a high-content cell imaging analysis system.

[3] = test system: Brain microvascular endothelial cells (BMECs) and brain microvascular smooth muscle cells (BMVSMCs); test: In vitro angiogenesis assay, BMEC/BMVSMC co-culture on matrigel; type: cell-based, mouse; settings: 0.1 mg/L, 48 h
Procedure: First, mouse brain microvascular pellets were obtained by differential centrifugation. Brain microvascular endothelial cells (BMECs) and brain microvascular smooth muscle cells (BMVSMCs) were isolated by digestion with collagenase II, respectively, and cultured in a cell incubator with 5% CO2 at 37°C . Cells at passages 3-6 in good growth condition and logarithmic growth phase were selected for the in vitro angiogenesis assay.
One night before the experiment, the high-concentration matrigel was transferred from a -20°C or -80°C refrigerator to a 4°C refrigerator and allowed to thaw slowly overnight in the 4°C refrigerator. Pipette tips required for the formal experiment were sterilized in advance and pre-cooled in a 4°C refrigerator for subsequent use.
On the day of the experiment, the matrigel was added to a 96-well plate 1 h in advance and placed in a 37°C cell incubator until it solidified. Subsequently, the cells were washed 2 times with 2 mL of PBS buffer, followed by digestion with 0.25% trypsin to obtain EC and VSMC pellets, respectively, and cell counting was performed. A uniform cell suspension containing 5×10^3 BMVSMCs and 1×10^3 BMECs per well was then seeded into the 96-well plate pre-coated with the matrigel, and cultured in a 37°C, 5% CO2 cell incubator for 3 days.
During the culture period, tube formation was observed daily. The medium was changed on day 4, followed by treatment with the polypeptide of the invention at 0.1 mg/L or VEGFA at 10/15/20 ng/L for 48 h, respectively.
On day 5, the cell nuclei and live cells were labeled with Hoechst 33342 and Calcein AM, respectively. High-content brightfield and fluorescence imaging were then performed using a high-content screening system. Finally, angiogenesis in each treatment group was analyzed using the Angiogenesis Analyzer plugin for ImageJ, and statistical analysis was carried out with GraphPad Prism 10.

[4] = significance vs blank control group

| Molecule | Proliferation-promoting results [1] | Number of intersections [3, 4] | number of BrdU positive cells [1] | Branch length [3, 4] | Cell count [3, 4] | angiogenesis-promoting effects ([3]; vs normal group, in words) | other results |
| --- | --- | --- | --- | --- | --- | --- | --- |
| H-ALPAGGTL-OH [Compound 15, H-Ala-Leu-Pro-Ala-Gly-Gly-Thr-Leu-OH] | * (*p < 0.05) | * (*p < 0.05) |  |  |  |  | neurite outgrowth (total neurite length, maximum neurite length, neurite terminals, neurite initiation points) [2]: tendency to promote neurite outgrowth; Longest neurite length [2, 4]: * (*p < 0.05); Branch length ([3]; vs normal group, in words): no significant effects; number of junctions ([3]; vs normal group, in words): promoting effects |
| CC(C)C[C@H](NC(=O)[C@@H](NC(=O)CNC(=O)[C@@H]1CCCN1)[C@@H](C)O)C(=O)O [Compound 28, H-Pro-Gly-Thr-Leu-OH] (H-PGTL-OH) | * (*p < 0.05) |  | significant increase |  |  |  | neurite outgrowth (total neurite length, maximum neurite length, neurite terminals, neurite initiation points) [2]: tendency to promote neurite outgrowth; Number of neurite terminals [2, 4]: * (*p < 0.05); Total neurite length [2, 4]: ** (**p < 0.01) |
| C[C@H](N)C(=O)N1CCC[C@H]1C(=O)NCC(=O)N[C@H](C(=O)O)[C@@H](C)O [Compound 37, H-Ala-Pro-Gly-Thr-OH] (H-APGT-OH) | * (*p < 0.05) |  | significant increase |  |  |  |  |
| H-LPAPGT-OH [Compound 32, H-Leu-Pro-Ala-Pro-Gly-Thr-OH] | * (*p < 0.05) |  | significant increase | * (*p < 0.05) | ** (**p < 0.01) |  |  |
| H-LAPAPGTL-OH [Compound 19, H-Leu-Ala-Pro-Ala-Pro-Gly-Thr-Leu-OH] | ** (**p < 0.01) | * (*p < 0.05) |  | * (*p < 0.05) |  | exhibited angiogenesis-promoting effects |  |
| H-AAPAPGTL-OH [Compound 16, H-Ala-Ala-Pro-Ala-Pro-Gly-Thr-Leu-OH] | * (*p < 0.05) |  |  |  |  |  | mean fluorescence intensity of the neuronal marker protein βIII-tubulin [2]: significant increase; Average fluorescence intensity [2, 4]: * (*p < 0.05) |
| CC(=O)N[C@@H](C)C(=O)N[C@@H](CC(C)C)C(=O)N1CCC[C@H]1C(=O)N[C@H](C)C(=O)N1CCC[C@H]1C(=O)NCC(=O)N[C@H](C(=O)N[C@@H](CC(C)C)C(N)=O)[C@@H](C)O [Compound 42, Ac-Ala-Leu-Pro-D-Ala-Pro-Gly-Thr-Leu-NH2] (Ac-ALP[dA]PGTL-NH2) |  |  |  | * (*p < 0.05) | * (*p < 0.05) |  | mean fluorescence intensity of the neuronal marker protein βIII-tubulin [2]: significant increase; Average fluorescence intensity [2, 4]: * (*p < 0.05); Branch length ([3]; vs normal group, in words): promoting effects; number of junctions ([3]; vs normal group, in words): no significant effects |
| H-ALPAPGAL-OH [Compound 18, H-Ala-Leu-Pro-Ala-Pro-Gly-Ala-Leu-OH] | *** (***p < 0.001) | * (*p < 0.05) |  | * (*p < 0.05) | * (*p < 0.05) | exhibited angiogenesis-promoting effects |  |
| CC(C)C[C@H](NC(=O)[C@@H](NC(=O)CNC(=O)[C@@H]1CCCN1C(=O)[C@H](C)NC(=O)[C@@H]1CCCN1C(=O)[C@H](CC(C)C)NC(=O)[C@@H](C)N)[C@@H](C)O)C(=O)O [Compound 2, H-D-Ala-Leu-Pro-Ala-Pro-Gly-Thr-Leu-OH] (H-[dA]LPAPGTL-OH) |  | ** (**p < 0.01) |  | *** (***p < 0.001) | * (*p < 0.05) | exhibited angiogenesis-promoting effects | Longest neurite length [2, 4]: ** (**p < 0.01); Neurite initiation points (branches) [2, 4]: * (*p < 0.05); Number of neurite terminals [2, 4]: ** (**p < 0.01); Total neurite length [2, 4]: ** (**p < 0.01) |
| CC(C)C[C@H](NC(=O)[C@H](C)N)C(=O)N1CCC[C@H]1C(=O)N[C@@H](C)C(=O)N1CCC[C@H]1C(=O)NCC(=O)N[C@H](C(=O)N[C@H](CC(C)C)C(=O)O)[C@@H](C)O [Compound 8, H-Ala-Leu-Pro-Ala-Pro-Gly-Thr-D-Leu-OH] (H-ALPAPGT[dL]-OH) | * (*p < 0.05) | * (*p < 0.05) |  | ** (**p < 0.01) |  | exhibited angiogenesis-promoting effects |  |
